From a melting point compilation (Tetko et al.; mined from patent text by program, amines drawn as free bases though some values may be those of a salt)

| Compound | melting point [°C] |
| --- | --- |
| COc1ccc2c(c1O)C(=O)O[C@@H]2[C@H]1c2c(cc3c(c2OC)OCO3)CCN1C | 142 to 143 |
| Cc1cccc(-c2ccc3c(c2)c(C(=O)C(=O)NCC(=O)O)cn3Cc2ccc(C(C)(C)C)cc2)c1 | 108 to 109 |
| CCc1[nH]n(C2CCCC2)c2nc(-c3ccccc3OC)nc(=O)c1-2 | 135 to 136 |
| CCP(=O)(OC)C(O)C(CC1CCCCC1)NC(=O)[C@H](CC(C)C)NC(=O)CCc1ccccc1 (stereo partly drawn) | 170 to 175 |
| C=CCC1(CC)C(=O)NC(=O)NC1=O | 157 to 159 |
| CCNC(=O)C=Cc1ccc(C(=C(CC)c2ccccc2)c2ccccc2)cc1 | 192 to 193 |
| COc1ccc(C(=O)CC(=O)c2snc(Cl)c2Cl)cc1 | 138 to 139 |
| CC(=O)OCC1OC(n2cc(C)c(=S)[nH]c2=S)CC1F (stereo not drawn) | 113 to 114 |
| Cc1cnc2c(c1)COP(=S)(OC(C)C)O2 (stereo not drawn) | 96 to 98 |
| CCCC(=O)C1=C(O)CC(c2ccc3occc3c2)CC1=O (stereo not drawn) | 71 |
| CN1C(=O)C2(COc3cc4c(cc32)OCCO4)c2c(NC(=O)c3ccccc3C(F)(F)F)cccc21 (stereo not drawn) | 241 to 243 |
| O=C(O)Cc1cc(=O)[nH]c2ccccc12 | 213 to 215 |
| CC(=O)SC(CC(=O)c1ccc(Oc2ccc(Br)cc2)cc1)C(=O)O (stereo not drawn) | 117 to 118 |
| CCOC(=O)c1cnn(-c2ccc(C=O)cc2)n1 | 126 to 129 |
| c1ccc(COc2cccc(Nc3nnc(Cc4ccncc4)c4ccccc34)c2)cc1 | 142 to 143 |
| c1ccc(Sc2cc(Sc3ccccc3)c3ccc4c(Sc5ccccc5)cc(Sc5ccccc5)c5ccc2c3c54)cc1 | 230 |
| COc1ccc(C2NC(C(=O)O)C(C)(C)S2)c(C(=O)O)c1OC (stereo not drawn) | 90 to 91 |
| C=C(C)OC(=O)c1ccc(C(=O)OC(=C)C)cc1 | 72 to 73.5 |
| CCCN/C(C)=C(/C#N)C(N)=S | 149 to 151 |
| CN(C)CC1Cc2ccccc2N(S(C)(=O)=O)C1 (stereo not drawn) | 69 to 70 |
| Cc1cc(F)ccc1-c1ccc(S(=O)(=O)N2c3ccccc3CC2C(=O)NCc2ccccc2[N+](=O)[O-])cc1 (stereo not drawn) | 64 to 66 |
| C[C@@H](NC(=O)C1CCC1)c1cccc(C(=O)c2ccccc2)c1 | 90 to 93 |
| N#Cc1cnc2ccsc2c1NCc1ccc(Cl)cc1Cl | 215 to 216 |
| COC(=O)c1cccc(-c2ncc(O)cn2)c1 | 219 to 223 |
| O=C(CCc1ccccc1)N1CCN(C(=O)C(Cc2ccc(O)cc2)NS(=O)(=O)c2cccc3cnccc23)CC1 (stereo not drawn) | 172 to 178 |
| COc1ccc(-c2nc(CNC(=O)CCC(=O)O)sc2-c2ccc(OC)cc2)cc1 | 110 to 116 |

| Compound | melting point [°C] |
| --- | --- |
| Nc1ccccc1-c1cc2ccc(Cl)cc2[nH]c1=O | 155 to 157 |
| CCOC(=O)c1cn(C2CC2)c2nc(Cl)c(F)cc2c1=O | 176 to 178 |
| Cc1cc(C#N)c(C)c(C(=O)Nc2ccn(C)n2)n1 | 180 |
| C#CCNC(=NCCSCc1ncccc1Cl)NC#N | 115 to 116 |
| NC(=O)CNC(=O)c1sc(Nc2ccccc2)c2c1CCc1cnoc1-2 | 213 to 214 |
| c1ccc(-c2cn[nH]c2)nc1 | 136 |
| Cc1cccc(C)c1N(Cn1cncn1)C(=O)CCl | 115 to 118 |
| O=C(O)c1cc(Oc2ccc(C(F)(F)F)cc2Cl)ccc1Cl | 103 to 104 |
| CCCc1ccc(S(=O)(=O)Nc2ccc3ncncc3c2)cc1 | 202 to 203 |
| CS(=O)(=O)c1cnc(Cl)c(CCC(=O)c2ccc(Cl)c(Cl)c2)c1 | 128 to 130 |
| Nc1nc2c(nc(C#Cc3ccc(C(F)(F)F)cc3)n2C2OC(CO)C(O)C2O)c(=O)[nH]1 (stereo not drawn) | > 240 |
| CCCCC(CC)CN(CCC)c1ccc(C2=C(C#N)C(=C(C#N)C#N)NC2=O)cc1 (stereo not drawn) | 189 |
| COC(=O)c1ccc(OC(=C(Oc2ccc(C(=O)OC)cc2)C(F)(F)F)C(F)(F)F)cc1 | 123 |
| CCOC(=O)Cc1c([N+](=O)[O-])cc(OCc2ccccc2)c2ccccc12 | 128 to 130 |
| CC#CCOc1cc(Oc2c(F)cccc2F)ncn1 | 79.8 |
| CC(=O)c1ccc(O)c(CS(C)(=O)=O)c1 | 206 to 208 |
| c1ccc(CN2CCc3[nH]c4cccc(-c5ccccc5)c4c3CC2)cc1 | 161 to 163 |
| O=C1c2ccccc2C(=O)c2c1ccc(C(=O)O)c2[N+](=O)[O-] | 284 to 286 |
| CCc1c(-c2ccc(O)cc2)c2ccc3ccc(CO)c1n32 | 154 to 156 |
| COc1ccc2[nH]c3c(c2c1[N+](=O)[O-])CCC3=O | 293 |
| CCCOc1ccc(Cl)c2c(=O)c3ccccc3sc12 | 102 to 103 |
| O=C1/C(=C(\NC2CCCCC2)c2ccccc2)Sc2ccccc21 | 122 to 123 |
| O=C1c2ccc(N3CCN(c4ccccc4)CC3)nc2CC2CCCCC12 (stereo not drawn) | 164 to 166 |
| COC(=O)c1[nH]c(C)c(C)c1OCCCCl | 117 to 120 |
| CNC1=NN(C(=O)c2cccc([N+](=O)[O-])c2)C(C)(C)S1 | 130 to 133 |
| CO/C=C(\Oc1cc(C#C[Si](C)(C)C)ccc1C)C(=O)OC | 125 |

| Compound | melting point [°C] |
| --- | --- |
| O=c1nc2n(cc1-c1ccccc1)CCC2 | 200 to 202 |
| CC(=O)c1ccc2c(c1)ncn2-c1cccc(-c2cccnc2)c1 | 195 to 197 |
| CNc1cc(CCN)ccc1OC | 90 to 92 |
| CC(C)=CCOc1ccc2c(=O)c(C)c(-c3ccccc3)oc2c1C(=O)C=Cc1ccccc1 | 83 to 84 |
| CCC(CNC(=S)Nc1cccc(-c2c[nH]cn2)c1)N(Cc1ccc(Cl)c(Cl)c1)c1ccc(Br)cn1 (stereo not drawn) | 140 to 160 |
| CCc1cc(Cl)cc2[nH]c(=O)c(-c3ccccc3)c(O)c12 | 284 to 288 |
| COc1ccc2c(c1)c(CC(=O)O)c(C)n2C(=O)c1ccc(OC(F)(F)F)cc1 | 136 to 138 |
| COC(=O)C1(C(=O)OC)CN(C(=O)OC(C)(C)C)c2cc([N+](=O)[O-])c3ccccc3c21 | 151 |
| CCOc1ccc(C#N)c(F)c1F | 45 |
| COc1cc(NCCN(C)Cc2ccccc2)ccc1C(N)=O | 153 to 155 |
| O=C(O)c1ccc(CCOCCCCCCBr)s1 | 60 to 61 |
| CC(C)n1nc(-c2sc(NC(=O)CCN3CCOCC3)nc2-c2ccccc2)ccc1=O | 197 to 198 |
| NCCN1CCC(Nc2nc3ccccc3n2Cc2ccccn2)C1 (stereo not drawn) | 130 |
| O=C(O)[C@@H]1CSC2(CCSCC2)N1 | 196 |
| O=[N+]([O-])c1ccc(C2CCOCC2)cc1 | 124 |
| Cc1n[nH]c(=O)n1-c1ccc(OC(F)(F)C(F)F)cc1 | 204 to 205 |
| CC(C#N)c1ccc(C(=O)c2ccc(Cl)cc2)n1C (stereo not drawn) | 145 to 148 |
| COC(=O)c1ccc(N=Cc2ccc(OC)c(C34CC5CC(CC(C5)C3)C4)c2)cc1 | 180 to 182 |
| Cc1nn2c(=O)c(CCCl)c(C)nc2s1 | 118 |
| COC(=O)c1ccc(Cn2ncc3ccc(N)cc32)cc1 | 131 to 132 |
| COC(=O)CCCCCCC1=CC(O)CC1=O (stereo not drawn) | 50 to 51 |
| CCCCCC(=O)NC(Cc1cnc(SCCC)n1Cc1ccccc1Cl)C(=O)O (stereo not drawn) | 118 to 121 |
| COc1ccc2nc(C(=O)O)cnc2c1 | 248 |
| CCOC(=O)C(Cc1cc(Cl)c(Sc2ccc(OC)c(Cc3ccc(OC)nc3)c2)c(Cl)c1)(NC(C)=O)C(=O)OCC | 170 to 171 |
| O=C(CCc1cc(Br)c(OC(=O)c2c3ccccc3nc3ccccc23)c(Br)c1)ON1C(=O)CCC1=O | 175 to 176 |
| Cc1ccccc1-n1nnc2cnc3ccccc3c21 | 140 to 142 |

| Compound | melting point [°C] |
| --- | --- |
| O=C(c1ccccc1Nc1ccncc1)N1CCCCC1 | 153 to 156 |
| CCCCc1nc(Cl)c(COC)n1Cc1ccc(C(=O)O)cc1 | 126 to 128 |
| Cc1sc(N)c(C(=O)c2ccc(Cl)cc2)c1C | 122 to 123 |
| Cn1c([N+](=O)[O-])cnc1C1=NOC2CCCC12 (stereo not drawn) | 89.5 to 91.5 |
| C=CCC(C(N)=O)C(N)=O | 168 to 169 |
| Cc1cccc(Nc2ccccc2C=NO)c1C | 107 to 108 |
| CC(C)[C@@H]1C[C@@H]([C@H](C[C@H](C(=O)N2C(=O)OC[C@@H]2Cc2ccccc2)C(C)C)N=[N+]=[N-])OC1=O | 102 to 103 |
| CN(C)C=CC(=O)c1ccc(Cl)cc1 | 78.5 to 80.5 |
| C1=Cc2cc(C=C(c3ccc4c(c3)C=C4)c3ccc4c(c3)C=C4)ccc21 | 87 to 89 |
| O=C1Cc2cc(O)ccc2N1c1c(Cl)cccc1Cl | 204 to 205 |
| CNC1=NS(=O)(=O)N=C1NCCSCc1ccccn1 | 168 to 171 |
| COc1ccc(-c2noc(CC(=O)O)c2-c2ccc(OC)cc2)cc1 | 142 to 143 |
| OC(COc1ccc(Cl)cc1)CN1CCN(c2ncccc2F)CC1 (stereo not drawn) | 73 to 76 |
| O=C(N[C@H](Cc1ccc(F)cc1)[C@@H](O)c1ccc(F)cc1)C1CCCCC1 (racemic) | 203 to 204 |
| Cc1nc(-c2cn(-c3cc(C(F)(F)F)cc(-c4ccc(C(F)(F)F)cc4)n3)cn2)sc1S(=O)(=O)NC(C)(C)C | > 250 |
| CC(=O)c1cc(Br)no1 | 65 to 66 |
| O=[N+]([O-])c1cnc2ccc(Cl)cc2c1Nc1ccccc1 | 174 to 175 |
| O=C(NCc1ccc(Cl)cc1)c1cn2c3c(cc(CN4CCOCC4)cc3c1=O)N=C(NCc1ccccc1)C2 | 235 to 240 |
| Cc1ccc(Cn2ncc(-c3ccc(S(C)(=O)=O)cc3)c(-c3ccc(F)cc3)c2=O)s1 | 172 to 175 |
| CC(C)NCC(O)COc1ccc(C2=NNC(=O)CC2)c2ccccc12 (stereo not drawn) | 131 to 135 |
| Cc1ccc(Oc2cnc(C#N)c(C#N)n2)cc1 | 126 to 127 |
| CC(C)(C)COc1ccc(NC(=O)c2cnn(-c3ccc(F)cc3)c2)cc1C#N | 196 to 197 |
| CC(O)(CCF)c1ccc(-c2ccc(F)cc2)cc1 (stereo not drawn) | 90 to 92 |
| O=C1CCCN1[C@H]1CC[C@@H](C(=O)O)CC1 | 188 |
| Cc1c(F)c(N2CCC(n3cncn3)C2)c(F)c2c1c(=O)c(C(=O)O)cn2C1CC1 (stereo not drawn) | 207 to 210 |
